According to PMC8187357 (Communications Biology, 2021):
Values joined by “and” are separate entries in the source; they are usually repeats but may differ in a detail not shown here. Identical values can stand only once. “Also recorded” adds a separate entry of the source.

Legend:
CT26 colon carcinoma = test: CT26 model, survival in combination with cyclophosphamide; format: in vivo, mouse; settings: CT26
Method: Studies in syngeneic models including B16 melanoma metastasis model and CT26 colon carcinoma subcutaneous model were performed as described. For the Docetaxel combination experiment in CT26 model, indicated dosage of docetaxel (Source: Docetere® injection by Dr Reddy’s Laboratories) was dosed intraperitoneally to animals. For the CA-170 combination groups, CA-170 (10 mg/kg/day, oral) was dosed ~10 min after docetaxel. Animal grouping, treatment efficacy assessment and %TGI calculations were performed as mentioned above. For the CT26 experiment with cyclophosphamide, 100 mg/kg of cyclophosphamide was dosed once on day 5 intraperitoneally after cell implantation (first day of dosing for all other groups). Anti-PD1 antibody (Clone J43 from BioXcel) was dosed intraperitoneally at 100 µg/animal once every week.

Melatonin MT1 = molecular target: T1, Melatonin MT1 (Homo sapiens, UniProt P48039); test: CEREP 80 panel binding: Melatonin; settings: read-out: % Inhibition of Control Specific Binding
T1 construct: Eurofins Cerep Panlabs (contract assay)
T1 sequence (P48039 whole entry): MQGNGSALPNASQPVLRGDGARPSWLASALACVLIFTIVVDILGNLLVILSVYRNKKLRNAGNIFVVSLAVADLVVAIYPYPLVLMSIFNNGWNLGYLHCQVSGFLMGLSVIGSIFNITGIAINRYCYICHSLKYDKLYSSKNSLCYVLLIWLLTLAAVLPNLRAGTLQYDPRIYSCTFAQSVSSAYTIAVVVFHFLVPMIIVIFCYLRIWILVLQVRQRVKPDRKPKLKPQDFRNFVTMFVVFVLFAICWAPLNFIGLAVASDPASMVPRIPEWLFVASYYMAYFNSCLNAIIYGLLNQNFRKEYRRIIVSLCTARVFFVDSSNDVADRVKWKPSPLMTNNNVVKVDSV
Method: (§1) CEREP 80 panel assay was carried out by Eurofins Cerep Panlabs facility at France. A series of binding assays was carried out to understand the off-target toxicity of CA-170. CA-170 was tested at 10 μM test concentration in duplicates. Compound binding was calculated as a % inhibition of the binding of a radioactively labeled ligand specific for each target. In each experiment the respective reference compound was tested concurrently with CA-170, and the data were compared with historical values determined at Eurofins. The experiment was accepted in accordance with Eurofins validation standard operating procedure. The results are expressed as a percent of control specific binding; (measured specific binding / control specific binding) × 100 and as a percent inhibition of control specific binding; 100−(measured specific binding / control specific binding) × 100 obtained in the presence of CA-170. The IC50 values (concentration causing a half-maximal inhibition of control specific binding) and Hill coefficients (nH) were determined by non-linear regression analysis of the competition curves generated with mean replicate values using Hill equation curve fitting.

PD-L1 [1] = molecular target: T2, PD-L1 (Homo sapiens, UniProt Q9NZQ7); test: SPR and solution NMR using recombinant extracellular domains; format: binding; parameters: SPR and solution NMR using recombinant proteins containing extracellular domains; host or cells: E. coli (said of the solution NMR studies); settings: recombinant proteins containing extracellular domains
Target sequence in this assay (Q9NZQ7 19-238 limits assumed, species assumed): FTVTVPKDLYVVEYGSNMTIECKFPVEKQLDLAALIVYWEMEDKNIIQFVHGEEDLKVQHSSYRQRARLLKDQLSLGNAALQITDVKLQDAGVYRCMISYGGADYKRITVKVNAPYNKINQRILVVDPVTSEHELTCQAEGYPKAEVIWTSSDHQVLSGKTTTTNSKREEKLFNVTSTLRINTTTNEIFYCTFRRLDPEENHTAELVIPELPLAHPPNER

Plasma stability, mice = settings: mouse
Method: Test compounds were tested for plasma stability (test concentration of 10 μM) as per the protocols reported in publication[20].

Melanocortin MC4 = molecular target: T3, Melanocortin MC4 (Homo sapiens, UniProt P32245); test: CEREP 80 panel binding: Melanocortin; settings: read-out: % Inhibition of Control Specific Binding
T3 construct: Eurofins Cerep Panlabs (contract assay)
T3 sequence (P32245 whole entry): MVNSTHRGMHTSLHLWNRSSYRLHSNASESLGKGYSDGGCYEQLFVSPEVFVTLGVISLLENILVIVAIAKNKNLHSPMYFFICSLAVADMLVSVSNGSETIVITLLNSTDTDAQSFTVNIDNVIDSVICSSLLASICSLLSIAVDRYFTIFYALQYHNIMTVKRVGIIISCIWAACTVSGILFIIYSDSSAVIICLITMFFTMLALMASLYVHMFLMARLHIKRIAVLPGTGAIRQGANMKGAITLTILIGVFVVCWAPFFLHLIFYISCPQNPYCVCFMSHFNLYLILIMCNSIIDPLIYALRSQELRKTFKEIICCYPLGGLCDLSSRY
Method: as §1

PD-L1 [2] = molecular target: T2, PD-L1; test: Rescue of IFN-γ release inhibited by PD-L1, human PBMC; format: cell-based; parameters: purchased R&D systems 156-B7-100; settings: for IFNγ Rescue (%): inhibited by PD-L1; for IFNγ Rescue (%) / IFN-γ: replicates; for IFN-γ: human PBMCs + anti-CD3/anti-CD28 + PD-L1 10 nM
Method: (§2) The ability of peptides, peptidomimetics, and small molecules were analyzed for their ability to rescue T-cell proliferation or IFN-γ release from the inhibitory activity of PD-L1 or PD-L2 in a splenocyte/PBMC-based functional assay as per the protocols reported in publication. […] For all in vitro assays, test agent stock was prepared in water and diluted further in the assay media to achieve test concentrations. Each experimental condition was carried out in triplicates. Percent rescue for a given test compound concentration was calculated by normalizing individual percent test agent proliferation or IFN-γ release values to percent anti-CD3 and anti-CD28 antibodies stimulated proliferation or IFN-γ release. EC50 values were derived by plotting transformed data into non-linear fit in sigmoidal dose–response curve using GraphPad Prism software (Version 7).
Target sequence in this assay (Q9NZQ7 with tags, fused parts or gaps limits assumed): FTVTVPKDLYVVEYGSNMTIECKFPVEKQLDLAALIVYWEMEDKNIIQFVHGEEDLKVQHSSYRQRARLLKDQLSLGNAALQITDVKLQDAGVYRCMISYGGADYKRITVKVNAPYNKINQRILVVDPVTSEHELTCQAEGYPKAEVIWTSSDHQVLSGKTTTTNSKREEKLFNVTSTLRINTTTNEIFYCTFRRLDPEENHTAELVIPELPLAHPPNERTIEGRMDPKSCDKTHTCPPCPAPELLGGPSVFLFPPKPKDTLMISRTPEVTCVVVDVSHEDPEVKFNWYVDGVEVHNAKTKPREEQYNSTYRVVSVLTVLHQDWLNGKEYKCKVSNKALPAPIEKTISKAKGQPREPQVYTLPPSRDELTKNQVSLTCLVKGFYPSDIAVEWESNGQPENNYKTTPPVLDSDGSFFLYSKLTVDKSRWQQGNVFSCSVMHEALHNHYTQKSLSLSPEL

Angiotensin -II AT1, AT2 = test: CEREP 80 panel binding: Angiotensin-II; settings: 10 µM
Method: as §1

GR, PPARγ = test: CEREP 80 panel binding: Nuclear receptors; settings: 10 µM
Method: as §1

[3] = test system: BZD (peripheral), BZD (central); test: CEREP 80 panel binding: Benzodiazepine; settings: 10 µM
Method: as §1

CTLA4 = molecular target: T4, CTLA4 (Homo sapiens, UniProt P16410); test: CTLA4-B7.1 functional assay (IL-2, Jurkat T cells); format: cell-based; settings: for IL2: Jurkat + B7.1 + PHA + CTLA-4 200 ng/mL, replicates
T4 construct: Fc (Ig); purchased R & D systems 325-CT
T4 sequence (P16410 with tags, fused parts or gaps limits assumed): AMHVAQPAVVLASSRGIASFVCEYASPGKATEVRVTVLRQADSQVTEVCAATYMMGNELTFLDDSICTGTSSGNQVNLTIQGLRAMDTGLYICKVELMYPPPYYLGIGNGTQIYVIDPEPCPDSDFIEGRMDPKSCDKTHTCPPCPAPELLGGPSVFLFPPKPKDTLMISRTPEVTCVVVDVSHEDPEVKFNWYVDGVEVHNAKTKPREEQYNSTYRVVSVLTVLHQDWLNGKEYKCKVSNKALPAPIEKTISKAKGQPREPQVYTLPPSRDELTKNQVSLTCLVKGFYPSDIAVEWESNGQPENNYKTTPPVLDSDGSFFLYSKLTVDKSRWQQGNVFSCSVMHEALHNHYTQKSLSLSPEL
Method: CA-170 was evaluated for its potential impact on B7.1 mediated immune-inhibitory interaction with CTLA4 by monitoring the rescue of release of IL-2 in the presence of recombinant CTLA4-Ig and B7.1 in T cells stimulated with phytohemagglutinin (PHA). Briefly, Jurkat T cells (0.25 × 10^5 cells/well of a 96-well plate) grown and starved in serum-free RPMI1640 media for 2 h were stimulated with PHA (10 µg/mL) and B7.1 (500 ng/mL) in the presence of recombinant human CTLA4-Ig (200 ng/mL) and different concentrations of CA-170 and cultured for 48 h at 37 °C. After 48 h of cell culture, supernatant was analyzed for IL-2 by ELISA. Anti-CTLA4 antibody and isotypes were used as controls.

[4] = test system: Neurokinin NK1, NK2, NK3 (antagonist); test: CEREP 80 panel binding: Neurokinin; settings: 10 µM
Method: as §1

[5] = test system: Cholecystokinin CCK1, CCK2; test: CEREP 80 panel binding: Cholecystokinin; settings: 10 µM
Method: as §1

PD-L2 = molecular target: T5, PD-L2 (Homo sapiens, UniProt Q9BQ51); test: Rescue of IFN-γ release inhibited by PD-L2, human PBMC; format: cell-based; settings: for IFNγ Rescue (%): inhibited by PD-L2; for IFNγ Rescue (%) / IFN-γ: replicates; for IFN-γ: human PBMCs + anti-CD3/anti-CD28 + PD-L2 10 nM
T5 construct: purchased R&D systems 1224-PL-100
T5 sequence (Q9BQ51 with tags, fused parts or gaps limits assumed): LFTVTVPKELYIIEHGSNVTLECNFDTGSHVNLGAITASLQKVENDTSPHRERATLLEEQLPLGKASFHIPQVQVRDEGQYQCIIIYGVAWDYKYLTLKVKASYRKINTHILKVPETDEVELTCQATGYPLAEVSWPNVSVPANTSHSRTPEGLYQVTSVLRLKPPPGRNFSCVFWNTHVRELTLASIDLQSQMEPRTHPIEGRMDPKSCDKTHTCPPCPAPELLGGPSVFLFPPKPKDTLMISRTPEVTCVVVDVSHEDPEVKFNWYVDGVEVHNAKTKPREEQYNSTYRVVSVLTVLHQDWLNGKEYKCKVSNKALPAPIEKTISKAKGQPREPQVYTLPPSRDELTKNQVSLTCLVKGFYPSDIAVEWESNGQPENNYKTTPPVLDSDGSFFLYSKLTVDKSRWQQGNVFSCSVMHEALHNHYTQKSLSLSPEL
Method: as §2

Glutamate PCP = test: CEREP 80 panel binding: Glutamate; settings: 10 µM
Method: as §1

purinergic P2X, P2Y = test: CEREP 80 panel binding: purinergic; settings: 10 µM
Method: as §1

[6] = human PBMCs stimulated with anti-CD3 and anti-CD28

For C[C@@H](O)[C@H](NC(=O)N[C@@H](CC(N)=O)c1nc([C@@H](N)CO)no1)C(=O)O [CA-170], the “survival advantage vs vehicle + CTX (in words)” value (CT26 colon carcinoma; CA-170 3 mg/kg/day + single dose CTX 100 mg/kg) was “Statistically significant survival advantage”, the “survival advantage vs vehicle + CTX (in words)” value (CT26 colon carcinoma; CA-170 10 mg/kg/day + single dose CTX 100 mg/kg) was “Statistically significant survival advantage” and the inhibition at 10 µM (Melatonin MT1) was 5%. For the same compound, the “binding to PD-L1 by SPR and solution NMR (in words)” value (PD-L1 [1]) was “a definitive binding could not be established; also recorded: lack of binding”, the remaining at 4 h, 10 μM (Plasma stability, mice) was greater than 95% and the inhibition at 10 µM (Melanocortin MC4) was 0%. The “IFNγ Rescue (%)” value (PD-L1 [2]; 1.95 nM) was -2.66% and -2.30% and -1.54%, the “IFNγ Rescue (%)” value (PD-L1 [2]; 3.91 nM) was -2.42% and -2.56% and -1.54% and the “IFNγ Rescue (%)” value (PD-L1 [2]; 15.63 nM) was 20.10% and 20.46% and 27.08%. The IFN-γ (PD-L1 [2]; 31.25 nM) was 256.5 pg/mL and 264 pg/mL and 296.5 pg/mL, the “IFNγ Rescue (%)” value (PD-L1 [2]; 31.25 nM) was 21.31% and 22.51% and 31.08% and the “IFNγ Rescue (%)” value (PD-L1 [2]; 62.50 nM) was 42.13% and 43.48% and 57.23%. For the same compound, the “IFNγ Rescue (%)” value (PD-L1 [2]; 250.00 nM) was 76.76% and 83.89% and 104.62%, the IFN-γ (PD-L1 [2]; 500 nM) was 876.5 pg/mL and 939 pg/mL and 906.5 pg/mL and the “IFNγ Rescue (%)” value (PD-L1 [2]; 500.00 nM) was 81.36% and 91.56% and 106.15%. The “rescue of IFNγ release inhibited by recombinant PD-L1 (in words)” value (PD-L1 [2]; [6]) was “rescued IFNγ release”, the EC50 (PD-L1 [2]; mean ± S.D., n=3) was 66.1 nM and the “% Inhibition of Control Specific Binding” value (Angiotensin -II AT1, AT2) was no more than 5%. For the same compound, the “% Inhibition of Control Specific Binding” value (GR, PPARγ) was no more than 7%, the “% Inhibition of Control Specific Binding” value [3] was no more than 5% and the IL2 (CTLA4; 10 nM) was 100.732 pg/mL and 119.610 pg/mL and 100.195 pg/mL. For the same compound, the IL2 (CTLA4; 100 nM) was 131.122 pg/mL and 123.634 pg/mL and 97.951 pg/mL, the IL2 (CTLA4; 1000 nM) was 139.927 pg/mL and 131.366 pg/mL and 108.171 pg/mL and the “rescue of IL-2 release inhibited by recombinant hCTLA-4 (in words)” value (CTLA4; Jurkat cells stimulated with PHA + human B7-1) was “did not rescue the release of IL-2”. The “% Inhibition of Control Specific Binding” value [4] was no more than 6%, the “% Inhibition of Control Specific Binding” value [5] was less than 0% and the “IFNγ Rescue (%)” value (PD-L2; 1.95 nM) was -64.52% and -5.10% and -5.67%. For the same compound, the “IFNγ Rescue (%)” value (PD-L2; 3.91 nM) was -3.89% and -4.90% and -5.25%, the “IFNγ Rescue (%)” value (PD-L2; 7.81 nM) was -1.08% and -2.04% and -2.73% and the “IFNγ Rescue (%)” value (PD-L2; 15.63 nM) was 4.10% and 2.24% and 2.52%. The IFN-γ (PD-L2; 31.25 nM) was 66.5 pg/mL and 74 pg/mL and 64 pg/mL, the “IFNγ Rescue (%)” value (PD-L2; 31.25 nM) was 4.10% and 2.86% and 1.89% and the “IFNγ Rescue (%)” value (PD-L2; 62.50 nM) was 39.96% and 36.33% and 35.71%. The “IFNγ Rescue (%)” value (PD-L2; 250.00 nM) was 74.73% and 74.90% and 79.20%, the IFN-γ (PD-L2; 500 nM) was 869 pg/mL and 984 pg/mL and 1059 pg/mL and the “IFNγ Rescue (%)” value (PD-L2; 500.00 nM) was 73.43% and 77.14% and 85.50%. The “rescue of IFNγ release inhibited by recombinant PD-L2 (in words)” value (PD-L2; [6]) was “rescued IFNγ release”, the EC50 (PD-L2; mean ± S.D., n=3) was 80.9 nM and the “% Inhibition of Control Specific Binding” value (Glutamate PCP) was 5%. For the same compound, the “% Inhibition of Control Specific Binding” value (purinergic P2X, P2Y) was no more than 3%.
